Data taken from US4332891A, “Process for the production of antibiotic Cephamycin C” (Otsuka Pharmaceutical Co., Ltd., priority 1979, dated 1982).
Values after ≈ are worked out from the molar mass of the structure shown.

Assays:
[1] = system: Bacillus subtilis PCI 219; test: Antimicrobial spectrum (MIC); assay type: cell-based; conditions: PCI219
Excerpt: (§1) The antimicrobial spectra to various microorganisms of the Cephamycin C produced by the process of this invention are shown as minimum inhibitory concentrations (MIC) in Table 4.

[2] = system: Staphylococcus aureus Newman; test: Antimicrobial spectrum (MIC); assay type: cell-based
Excerpt: as §1

Sarcina lutea PCI 1001 = test: Antimicrobial spectrum (MIC); assay type: cell-based; conditions: Micrococcus luteus, PCI1001
Excerpt: as §1

Proteus mirabilis 1287 = test: Antimicrobial spectrum (MIC); assay type: cell-based
Excerpt: as §1

Esherichia coli NIHJ = test: Antimicrobial spectrum (MIC); assay type: cell-based
Excerpt: as §1

[3] = system: Staphylococcus aureus FDA 209P; test: Antimicrobial spectrum (MIC); assay type: cell-based; conditions: FDA209P
Excerpt: as §1

[4] = system: Salmonella typhi 0-901 NCTC 8393; test: Antimicrobial spectrum (MIC); assay type: cell-based; conditions: Salmonella enterica
Excerpt: as §1

[5] = system: Proteus vulgaris IID OX-19; test: Antimicrobial spectrum (MIC); assay type: cell-based; conditions: IIDOX19
Excerpt: as §1

Solubility = assay type: physicochemical

Question: For `COC1(NC(=O)CCCC(N)C(=O)O)C(=O)N2C(C(=O)O)=C(COC(N)=O)CS[C@@H]21` (some centres unmarked) [Cephamycin C, 7-(5-amino-5-carboxyvalerylamino)-3-carbamoyloxymethyl-7-methoxy-3-cephem-4-carboxylic acid], which MIC [1] is on record?
Answer: 15.6 µg/mL (≈ 34.9 µM)

Question: And the MIC [2]?
Answer: 250 µg/mL (≈ 560 µM)

Question: What about the MIC (Sarcina lutea PCI 1001) of the same molecule?
Answer: 15.6 µg/mL (≈ 34.9 µM)

Question: What about the MIC (Proteus mirabilis 1287) of the same molecule?
Answer: 7.8 µg/mL (≈ 17.5 µM)

Question: And the MIC (Esherichia coli NIHJ)?
Answer: 15.6 µg/mL (≈ 34.9 µM)

Question: What about the MIC [3] of the same molecule?
Answer: 250 µg/mL (≈ 560 µM)

Question: What about the MIC [4] of the same molecule?
Answer: 3.9 µg/mL (≈ 8.74 µM)

Question: What about the MIC [5] of the same molecule?
Answer: 7.8 µg/mL (≈ 17.5 µM)

Question: And the Solubility (Solubility; in dimethylsulfoxide)?
Answer: slightly soluble in dimethylsulfoxide

Question: And the Solubility (Solubility; in ethanol)?
Answer: sparingly soluble in ethanol

Question: What about the Solubility (Solubility; in water) of the same molecule?
Answer: well soluble in water
